How the values were obtained:
Assay type in all cases: biochemical
CDK2 = biological target: T1, CDK2 (Homo sapiens, UniProt P24941); assay: CDK2 substrate phosphorylation assay (biotinylated peptide, 32P-ATP); settings: Inhibition of CDK2
T1 construct: made in house
Protocol: (§1) The compounds of the present invention have valuable pharmacologic properties. Different compounds from this class are particularly effective at inhibiting CDK2 and/or CDK4 enzymes at concentrations, which range from 0.0001 to 1 μM and additionally show specificity relative to other kinases. Substrate phosphorylation assays were carried out as follows:
Cyclin dependent protein kinase 2 assays utilized the peptide Biotin-aminohexyl-ARRPMSPKKKA-NH2 as phosphoryl group acceptor. CDK2 was expressed utilizing a baculovirus expression system and was partially purified to comprise 20-80% of total protein, with no detectable competing reactions present. Typically, assays were performed by incubating enzyme (0.2-10 nM), with and without inhibitor, peptide substrate (1-10 nM), [g-^32P]ATP (1-20 nM), and 10-20 mM Mg^2+ for periods of time generally within the range 10-120 minutes. Reactions were terminated with 0.2-2 volumes of either 20% acetic acid or 50-100 mM EDTA buffered to pH 7 (substrate consumption <20%). The buffer employed in enzyme assay was 100 mM HEPES pH 7.5 containing 0.1 mg/mL BSA and 5% DMSO. Inhibitors were diluted in 100% DMSO prior to addition into the assay. Detection of peptide phosphorylation was accomplished by scintillation counting following either collection of peptide onto phosphocellulose filters (for reactions stopped with acetic acid), collection of peptide in wells of 96 well plates coated with Streptavidin (Pierce) (reactions were stopped with EDTA), or addition of Avidin coated Scintillant impregnated beads (Scintillation Proximity Assays from Amersham, reactions were stopped with EDTA). Counts detected by any of these methodologies minus the appropriate background (assays with additional 40 mM EDTA or lacking peptide substrate) were assumed to be proportional to the reaction initial rates, and IC50s were determined by a least squares fit to the equation CPM=Vmax*(1−([I]/(K+[I])))+nsb, or −pIC50s were determined by a fit to the equation CPM=nsb+(Vmax−nsb)/(1+(x/10^x−pIC50)), where nsb are the background counts. Filters are washed four times with 75 mM phosphoric acid. Radioactivity was determined by liquid scintillation counting.

CDK4 = biological target: T2, CDK4 (Homo sapiens, UniProt P11802); assay: CDK4 substrate phosphorylation assay (Rb protein, 33P-ATP); settings: Inhibition of CDK4
T2 construct: made in house
Protocol: as §1
Cyclin D1 and cyclin-dependent kinase 4 were expressed utilizing a baculovirus expression system. The catalytic activity of CDK4 protein was assayed by measuring the phosphorylation of Rb protein. A truncated Rb protein (residues 773-928 of the native retinoblastoma protein, fused to glutathione S-transferase to facilitate purification) was used as the phosphoryl acceptor. The assay conditions were 100 mM HEPES (N-[2-hydroxyethyl]piperzine-N′-[2-ethanesulfonic acid]), pH 7.5, 0.5 μM GST-Rb protein, 1 μCi/mL [^33P]-ATP (1 nM-20 μM), 5-20 mM MgCl2, 2.5 mM EDTA, 1 mM dithiotheitol, 0.2 mg/mL bovine serum albumin, 2% (v/v) dimethyl sulfoxide (DMSO), CDK4 enzyme (5-50 nM) in a final volume of 50 μL. Reactions were incubated for time periods of 10-60 min at 30° C. and terminated by the addition of 50 μL quench (1 mM ATP/100 mM EDTA, pH 7.0). Detection of protein phosphorylation was accomplished by scintillation counting following collection of protein in 96 well plates coated with Glutathione or trapping of protein onto phosphocellulose filters. Counts detected by these methodologies minus the appropriate background were assumed to be proportional to the reaction initial rates. IC50 values were determined by measuring enzyme activity in the presence of different inhibitor concentrations (0.1 nM to 50 μM). IC50s were determined by a least squares fit to the equation CPM=Vmax*(1−([I]/(K+[I])))+nsb, or pIC50s were determined by a fit to the equation CPM=nsb+(Vmax−nsb)/(1+(x/10^x−pIC50)), where nsb are the background counts.

hVEGFR2 = hVEGFR2 (Homo sapiens, UniProt P35968); assay: VEGFR2 HTRF assay; settings: Inhibition of VEGFR2
Protocol: The compounds of the present invention elicit important and measurable pharmacological responses. Different compounds from this class are particularly effective at inhibiting VEGFR2 enzymes, as described by the VEGFR2 HTRF assay below, at concentrations, which range from 0.0001 to 1 μM.
The assays were performed in 96-well black plates. 10 nM hVEGFR2 was used to phosphorylate 0.36 μM peptide (Biotin-Ahx-EEEEYFELVAKKKK) in the presence of 75 μM ATP, 5 mM MgCl2, 0.3 mM DTT, 0.1 mg/ml BSA, and 0.1 M HEPES (pH 7.5). 10 μl 0.5 M EDTA was added to reactions as negative controls. The 50 μl kinase reaction with or without inhibitors in 5% DMSO was carried out at room temperature for 45 minutes, then stopped by 40 μl of 125 mM EDTA. 2.4 μg/ml Streptavidin-APC and 0.15 μg/ml Eu-α-pY, in the presence of 0.1 mg/ml BSA, 0.1 M HEPES (pH7.5), were added to a final volume of 140 μl. The plate was incubated for 10 min at room temperature (22° C.) and read on the Victor with the time resolved fluorescence mode by exciting at 340 nm and reading the emission at 665 nm.
• Peptide from Synpep (Dublin, Calif.) • ATP, MgCl2, DTT, BSA, HEPES, EDTA, DMSO from Sigma Streptavidin-APC from Molecular Probes (Eugene, Oreg.) • Eu-α-pY from EG&G Wallac (Gaithersburg, Md.)

T2 sequence (P11802 whole entry, species assumed): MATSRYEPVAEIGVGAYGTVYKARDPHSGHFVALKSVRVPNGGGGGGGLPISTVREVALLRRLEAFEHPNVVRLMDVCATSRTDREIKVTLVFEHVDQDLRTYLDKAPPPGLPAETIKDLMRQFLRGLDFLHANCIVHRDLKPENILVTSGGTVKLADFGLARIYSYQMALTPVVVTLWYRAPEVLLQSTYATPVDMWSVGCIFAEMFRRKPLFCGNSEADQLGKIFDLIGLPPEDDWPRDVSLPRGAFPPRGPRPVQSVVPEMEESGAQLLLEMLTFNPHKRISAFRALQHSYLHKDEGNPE
T2 sequence (P24385 whole entry partner, species assumed): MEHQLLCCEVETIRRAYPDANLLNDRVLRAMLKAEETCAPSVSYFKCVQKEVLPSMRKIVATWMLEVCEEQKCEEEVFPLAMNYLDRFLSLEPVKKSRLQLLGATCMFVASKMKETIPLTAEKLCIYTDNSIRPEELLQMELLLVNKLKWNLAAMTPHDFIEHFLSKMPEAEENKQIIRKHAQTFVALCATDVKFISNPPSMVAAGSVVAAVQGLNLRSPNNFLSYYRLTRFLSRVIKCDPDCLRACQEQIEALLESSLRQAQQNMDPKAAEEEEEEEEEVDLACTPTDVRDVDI
hVEGFR2, sequence (P35968 20-1356): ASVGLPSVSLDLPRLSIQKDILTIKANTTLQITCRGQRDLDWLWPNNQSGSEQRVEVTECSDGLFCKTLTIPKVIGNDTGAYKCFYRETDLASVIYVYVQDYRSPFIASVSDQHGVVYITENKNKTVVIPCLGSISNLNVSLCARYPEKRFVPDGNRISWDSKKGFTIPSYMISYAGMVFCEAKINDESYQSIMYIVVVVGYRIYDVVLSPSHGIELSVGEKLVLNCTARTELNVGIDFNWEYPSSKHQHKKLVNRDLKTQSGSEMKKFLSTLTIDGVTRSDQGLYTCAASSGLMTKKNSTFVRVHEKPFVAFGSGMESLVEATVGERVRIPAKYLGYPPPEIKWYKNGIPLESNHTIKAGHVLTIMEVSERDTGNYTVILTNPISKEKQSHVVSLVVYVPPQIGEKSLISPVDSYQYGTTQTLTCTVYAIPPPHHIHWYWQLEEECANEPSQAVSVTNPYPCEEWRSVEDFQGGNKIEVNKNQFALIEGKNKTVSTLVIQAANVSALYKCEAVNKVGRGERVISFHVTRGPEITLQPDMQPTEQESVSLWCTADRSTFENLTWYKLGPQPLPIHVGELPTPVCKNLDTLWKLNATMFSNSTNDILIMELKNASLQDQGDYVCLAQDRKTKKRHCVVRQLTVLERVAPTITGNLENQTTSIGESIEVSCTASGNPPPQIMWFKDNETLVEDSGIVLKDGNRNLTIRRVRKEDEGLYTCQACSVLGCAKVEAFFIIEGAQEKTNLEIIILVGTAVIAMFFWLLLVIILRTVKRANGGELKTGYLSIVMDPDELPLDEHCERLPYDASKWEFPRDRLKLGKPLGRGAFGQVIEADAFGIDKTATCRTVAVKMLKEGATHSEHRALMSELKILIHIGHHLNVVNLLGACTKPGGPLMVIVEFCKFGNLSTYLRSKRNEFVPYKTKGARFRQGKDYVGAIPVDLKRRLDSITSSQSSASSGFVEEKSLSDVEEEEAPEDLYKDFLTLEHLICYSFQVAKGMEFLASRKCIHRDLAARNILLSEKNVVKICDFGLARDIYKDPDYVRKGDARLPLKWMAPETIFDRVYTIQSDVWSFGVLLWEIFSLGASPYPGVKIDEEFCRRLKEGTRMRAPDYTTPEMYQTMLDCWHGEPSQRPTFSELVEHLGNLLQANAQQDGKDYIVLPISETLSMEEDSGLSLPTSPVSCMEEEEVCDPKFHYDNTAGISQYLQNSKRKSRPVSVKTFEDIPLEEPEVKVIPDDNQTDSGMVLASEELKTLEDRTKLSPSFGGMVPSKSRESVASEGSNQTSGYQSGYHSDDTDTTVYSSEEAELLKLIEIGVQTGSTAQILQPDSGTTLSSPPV

| IC50 (CDK2) [nM] | IC50 (CDK4) [nM] | IC50 (hVEGFR2) [nM] | Compound |
| --- | --- | --- | --- |
| < 1000 | < 100 | < 1000 | COc1cccc(-c2cnc(Nc3ccc(N4CCN(C)CC4)cc3)o2)c1 [Example 4, 5-(3-Methoxyphenyl)-N-[4-(4-methylpiperazin-1-yl)phenyl]-1,3-oxazol-2-amine] |
| < 1000 | < 100 | < 100 | COc1cccc(-c2cnc(Nc3ccc(N4CCN(C)CC4)c(C)c3)o2)c1 [Example 22, 5-(3-Methoxyphenyl)-N-[3-methyl-4-(4-methylpiperazin-1-yl)phenyl]-1,3-oxazol-2-amine] |
| < 1000 | < 1000 | < 1000 | COc1cccc(-c2cnc(Nc3ccc(N4CCN(C)CC4)nc3)o2)c1 [Example 31, N-[5-(3-methoxyphenyl)-1,3-oxazol-2-yl]-6-(4-methylpiperazin-1-yl)pyridin-3-amine] |
| < 100 | < 100 | < 100 | CN1CCN(c2ccc(Nc3ncc(-c4cccc(OC5CCCC5)c4)o3)cc2)CC1 [Example 13, 5-[3-(cyclopentyloxy)phenyl]-N-[4-(4-methylpiperazin-1-yl)phenyl]-1,3-oxazol-2-amine] |
| < 1000 | < 100 | < 1000 | CCOc1cccc(-c2cnc(Nc3ccc(N4CCN(C)CC4)cc3)o2)c1 [Example 5, 5-(3-Ethoxyphenyl)-N-[4-(4-methylpiperazin-1-yl)phenyl]-1,3-oxazol-2-amine] |
| < 1000 | < 100 | < 1000 | COc1cccc(-c2cnc(Nc3ccc(N4CCN(C)CC4)c(C(F)(F)F)c3)o2)c1 [Example 21, 5-(3-Methoxyphenyl)-N-[4-(4-methylpiperazin-1-yl)-3-(trifluoromethyl)phenyl]-1,3-oxazol-2-amine] |
| < 1000 | < 100 | < 100 | CCCOc1cccc(-c2cnc(Nc3ccc(N4CCN(C)CC4)cc3)o2)c1 [Example 17, N-[4-(4-methylpiperazin-1-yl)phenyl]-5-(3-propoxyphenyl)-1,3-oxazol-2-amine] |
| < 100 | < 100 | < 1000 | CC(C)Oc1cccc(-c2cnc(Nc3ccc(N4CCN(C)CC4)cc3)o2)c1 [Example 12, 5-(3-Isopropoxyphenyl)-N-[4-(4-methylpiperazin-1-yl)phenyl]-1,3-oxazol-Z -amine] |
| < 1000 | < 100 | < 1000 | COc1cccc(-c2cnc(Nc3ccc(N4CCN(C)CC4)c(Cl)c3)o2)c1 [Example 19, N-[3-chloro-4-(4-methylpiperazin-1-yl)phenyl]-5-(3-methoxyphenyl)-1,3-oxazol-2-amine] |
| < 10000 | < 1000 | < 1000 | COc1cccc(-c2cnc(Nc3ccc(N4CCN(C)CC4)cc3C)o2)c1 [Example 24, 5-(3-methoxyphenyl)-N-[2-methyl-4-(4-methylpiperazin-1-yl)phenyl]-1,3-oxazol-2-amine] |
|  | < 100 | < 1000 | CN1CCN(c2ccc(Nc3ncc(-c4cccc(O)c4)o3)cc2)CC1 [Example 29, 3-(2-{[4-(4-methylpiperazin-1-yl)phenyl]amino}-1,3-oxazol-5-yl)phenol] |

The next lines start with the molecule.

| Compound | IC50 (CDK2) [nM] | IC50 (CDK4) [nM] | IC50 (hVEGFR2) [nM] |
| --- | --- | --- | --- |
| CN1CCN(Cc2ccc(Nc3ncc(-c4ccccc4)o3)cc2)CC1 [Example 39, N-{4-[(4-methylpiperazin-1-yl)methyl]phenyl}-5-phenyl-1,3-oxazol-2-amine] | < 1000 | < 1000 | < 1000 |
| COc1cccc(-c2cnc(Nc3ccccc3)o2)c1 [Example 1, 5-(3-methoxyphenyl)-N-phenyl-1,3-oxazol-2-amine] | < 1000 | < 1000 | < 10000 |
| COc1cccc(-c2cnc(Nc3ccc(CN4CCCC4)cc3)o2)c1 [Example 44, 5-(3-methoxyphenyl)-N-[4-(pyrrolidin-1-ylmethyl)phenyl]-1,3-oxazol-2-amine] | < 1000 | < 100 | < 100 |
| CCN(CC)c1ccc(Nc2ncc(-c3cccc(OC)c3)o2)cn1 [Example 35, N^2,N^2-diethyl-N^5-[5-(3-methoxyphenyl)-1,3-oxazol-2-yl]pyridine-2,5-diamine] | < 10000 | < 10000 | < 10000 |
| CC(C)COc1cccc(-c2cnc(Nc3ccc(N4CCN(C)CC4)cc3)o2)c1 [Example 14, 5-(3-Isobutoxyphenyl)-N-[4-(4-methylpiperazin-1-yl)phenyl]-1,3-oxazol-2-amine] | < 1000 | < 100 | < 1000 |
| CCN(CC)c1ccc(Nc2ncc(-c3cccc(OC4CCCC4)c3)o2)cn1 [Example 36, N^5-{5-[3-(cyclopentyloxy)phenyl]-1,3-oxazol-2-yl}-N^2,N^2-diethylpyridine-2,5-diamine] | < 1000 | < 1000 | < 10000 |
| CCN1CCN(c2ccc(Nc3ncc(-c4ccccc4)o3)cc2)CC1 [Example 7, N-[4-(4-Ethylpiperazin-1-yl)phenyl]-5-phenyl-1,3-oxazol-2-amine] | < 10000 | < 1000 | < 1000 |
| CN1CCN(c2ccc(Nc3ncc(-c4cccc(OC5CCCC5)c4)o3)cc2F)CC1 [Example 28, 5-[3-(Cyclopentyloxy)phenyl]-N-[3-fluoro-4-(4-methylpiperazin-1-yl)phenyl]-1,3-oxazol-2-amine] | < 100 | < 100 | < 100 |
| COc1cccc(-c2cnc(Nc3ccc(CN4CCCCC4)cc3)o2)c1 [Example 43, 5-(3-methoxyphenyl)-N-[4-(piperidin-1-ylmethyl)phenyl]-1,3-oxazol-2-amine] | < 1000 | < 100 | < 1000 |
| CN(C)Cc1ccc(Nc2ncc(-c3cccc(OC4CCCC4)c3)o2)cc1 [Example 41, 5-[3-(cyclopentyloxy)phenyl]-N-{4-[(dimethylamino)methyl]phenyl}-1,3-oxazol-2-amine] |  | < 100 | < 1000 |
| CN1CCN(c2ccc(Nc3ncc(-c4cccc(OC5CCCC5)c4)o3)cc2Cl)CC1 [Example 26, N-[3-Chloro-4-(4-methylpiperazin-1-yl)phenyl]-5-[3-(cyclopentyloxy)phenyl]-1,3-oxazol-2-amine] | < 100 | < 100 | < 1000 |
| COc1cccc(-c2cnc(Nc3ccc(N4CCCCC4)cc3)o2)c1 [Example 10, 5-(3-Methoxyphenyl)-N-(4-piperidin-1-ylphenyl)-1,3-oxazol-2-amine] |  | < 10000 | < 1000 |
